# How the values were obtained:
# [1] = test system: quinolinic acid-administration model of HD; design: method as in PMID 27430371; settings: cited from earlier work
# [2] = target: T1, CYP2D6 (Homo sapiens, UniProt P10635); assay: biochemical; type: in vitro ADME; settings: Substrate = Dextromethorphan, human liver microsomes
# T1 construct: from tissue; host or cells: human liver microsomes
# Procedure: (§1) Supplementary file 40035_2019_148_MOESM2_ESM.pdf: Additional file 2: Cytochrome P450 Inhibition (IC50 Determination). CYP1A Inhibition. VCE-003.2 (0.1, 0.25, 1, 2.5, 10, 25 μM in DMSO; final DMSO concentration = 0.3%) was incubated with human liver microsomes (0.25 mg/mL) and NADPH (1 mM) in the presence of the probe substrate ethoxyresorufin (0.5 μM) for 5 min at 37 °C. The selective CYP1A inhibitor, alpha-naphthoflavone, was screened alongside the test compounds as a positive control. CYP2B6 Inhibition. VCE-003.2 (0.1, 0.25, 1, 2.5, 10, 25 μM in DMSO; final DMSO concentration = 0.3%) was incubated with human liver microsomes (0.1 mg/mL) and NADPH (1 mM) in the presence of the probe substrate bupropion (110 μM) for 5 min at 37 °C. The selective CYP2B6 inhibitor, ticlopidine, was screened alongside the test compounds as a positive control. CYP2C8 Inhibition. VCE-003.2 (0.1, 0.25, 1, 2.5, 10, 25 μM in DMSO; final DMSO concentration = 0.3%) was incubated with human liver microsomes (0.25 mg/mL) and NADPH (1 mM) in the presence of the probe substrate paclitaxel (7.5 μM) for 30 min at 37 °C. The selective CYP2C8 inhibitor, montelukast, was screened alongside the test compounds as a positive control. CYP2C9 Inhibition. VCE-003.2 (0.1, 0.25, 1, 2.5, 10, 25 μM in DMSO; final DMSO concentration = 0.3%) was incubated with human liver microsomes (1 mg/mL) and NADPH (1 mM) in the presence of the probe substrate tolbutamide (120 μM) for 60 min at 37 °C. The selective CYP2C9 inhibitor, sulphaphenazole, was screened alongside the test compounds as a positive control. CYP2C19 Inhibition. VCE-003.2 (0.1, 0.25, 1, 2.5, 10, 25 μM in DMSO; final DMSO concentration = 0.3%) was incubated with human liver microsomes (0.5 mg/mL) and NADPH (1 mM) in the presence of the probe substrate mephenytoin (25 μM) for 60 min at 37 °C. The selective CYP2C19 inhibitor, tranylcypromine, was screened alongside the test compounds as a positive control. CYP2D6 Inhibition. VCE-003.2 (0.1, 0.25, 1, 2.5, 10, 25 μM in DMSO; final DMSO concentration = 0.3%) was incubated with human liver microsomes (0.5 mg/mL) and NADPH (1 mM) in the presence of the probe substrate dextromethorphan (5 μM) for 5 min at 37 °C. […] CYP3A4 Inhibition. VCE-003.2 (0.1, 0.25, 1, 2.5, 10, 25 μM in DMSO; final DMSO concentration = 0.3%) was incubated with human liver microsomes (0.1 mg/mL) and NADPH (1 mM) in the presence of the probe substrate midazolam (2.5 μM) for 5 min at 37 °C. The selective CYP3A4 inhibitor, ketoconazole, was screened alongside the test compounds as a positive control. CYP3A4 Inhibition. VCE-003.2 (0.1, 0.25, 1, 2.5, 10, 25 μM in DMSO; final DMSO concentration = 0.3%) was incubated with human liver microsomes (0.5 mg/mL) and NADPH (1 mM) in the presence of the probe substrate testosterone (50 μM) for 5 min at 37 °C. The selective CYP3A4 inhibitor, ketoconazole, was screened alongside the test compounds as a positive control. For the CYP1A incubations, the reactions were terminated by methanol, and the formation of the metabolite, resorufin, was monitored by fluorescence (excitation wavelength = 535 nm, emission wavelength = 595 nm). For the CYP2B6, CYP2C9, CYP2C19, CYP2D6, and CYP3A4 incubations, the reactions were terminated by methanol. The samples were centrifuged, and the supernatants combined for the simultaneous analysis of 4-hydroxytolbutamide, 4-hydroxymephenytoin, dextrorphan, and 1-hydroxymidazolam by LC-MS/MS. Hydroxybupropion, 6α-hydroxypaclitaxel and 6ß-hydroxytestosterone were analyzed separately by LC-MS/MS. A decrease in the formation of the metabolites compared to vehicle control was used to calculate IC50 values. (PDF 323 kb)
# [3] = target: T2, CYP3A4 (Homo sapiens, UniProt P08684); assay: biochemical; type: in vitro ADME; settings: human liver microsomes
# T2 construct: from tissue; host or cells: human liver microsomes
# T2 sequence (P08684 whole entry): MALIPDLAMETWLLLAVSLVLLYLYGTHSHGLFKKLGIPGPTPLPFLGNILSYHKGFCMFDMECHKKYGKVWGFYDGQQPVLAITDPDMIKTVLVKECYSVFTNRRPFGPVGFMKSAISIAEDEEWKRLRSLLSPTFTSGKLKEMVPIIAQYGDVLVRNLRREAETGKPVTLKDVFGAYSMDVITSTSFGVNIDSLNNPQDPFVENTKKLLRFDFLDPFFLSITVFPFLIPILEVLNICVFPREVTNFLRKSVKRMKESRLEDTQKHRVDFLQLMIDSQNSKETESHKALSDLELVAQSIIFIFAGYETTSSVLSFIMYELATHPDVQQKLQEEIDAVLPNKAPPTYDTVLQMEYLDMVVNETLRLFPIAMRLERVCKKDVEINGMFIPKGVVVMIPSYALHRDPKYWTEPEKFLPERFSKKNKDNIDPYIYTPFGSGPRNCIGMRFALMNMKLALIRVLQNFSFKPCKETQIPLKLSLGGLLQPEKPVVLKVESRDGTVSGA
# Procedure: as §1
# [4] = target: T3, CYP2B6 (Homo sapiens, UniProt P20813); assay: biochemical; type: in vitro ADME; settings: Substrate = Bupropion, human liver microsomes
# T3 construct: from tissue; host or cells: human liver microsomes
# T3 sequence (P20813 whole entry): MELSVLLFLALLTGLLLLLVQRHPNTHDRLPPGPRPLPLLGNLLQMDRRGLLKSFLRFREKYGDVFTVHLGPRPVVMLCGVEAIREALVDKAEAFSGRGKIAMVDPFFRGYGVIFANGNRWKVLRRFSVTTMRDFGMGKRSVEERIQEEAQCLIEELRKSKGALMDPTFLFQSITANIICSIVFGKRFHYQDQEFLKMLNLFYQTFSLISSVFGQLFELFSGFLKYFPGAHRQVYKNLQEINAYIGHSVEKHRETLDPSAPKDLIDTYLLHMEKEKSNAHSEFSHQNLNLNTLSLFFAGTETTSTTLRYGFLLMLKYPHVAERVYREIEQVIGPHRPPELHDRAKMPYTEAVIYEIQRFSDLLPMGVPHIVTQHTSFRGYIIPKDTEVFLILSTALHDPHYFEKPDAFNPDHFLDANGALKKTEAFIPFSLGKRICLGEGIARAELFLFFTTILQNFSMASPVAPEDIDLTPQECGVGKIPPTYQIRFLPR
# Procedure: as §1
# [5] = target: T4, CYP2C8 (Homo sapiens, UniProt P10632); assay: biochemical; type: in vitro ADME; settings: Substrate = Paclitaxel, human liver microsomes
# T4 construct: from tissue; host or cells: human liver microsomes
# T4 sequence (P10632 whole entry): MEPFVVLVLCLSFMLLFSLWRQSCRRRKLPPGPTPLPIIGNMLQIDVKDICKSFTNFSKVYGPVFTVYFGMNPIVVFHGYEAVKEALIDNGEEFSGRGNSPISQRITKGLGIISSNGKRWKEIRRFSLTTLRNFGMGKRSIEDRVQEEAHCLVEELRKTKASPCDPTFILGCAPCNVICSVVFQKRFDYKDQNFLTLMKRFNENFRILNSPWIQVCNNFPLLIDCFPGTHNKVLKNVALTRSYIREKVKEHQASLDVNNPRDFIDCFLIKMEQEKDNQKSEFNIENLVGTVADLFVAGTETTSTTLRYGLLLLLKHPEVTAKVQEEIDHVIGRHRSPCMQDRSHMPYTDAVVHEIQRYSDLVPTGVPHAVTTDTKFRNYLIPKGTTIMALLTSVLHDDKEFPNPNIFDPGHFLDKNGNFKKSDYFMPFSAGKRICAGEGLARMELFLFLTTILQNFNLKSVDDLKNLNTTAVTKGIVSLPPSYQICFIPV
# Procedure: as §1
# [6] = target: T5, CYP2C9 (Homo sapiens, UniProt P11712); assay: biochemical; type: in vitro ADME; settings: Substrate = Tolbutamide, human liver microsomes
# T5 construct: from tissue; host or cells: human liver microsomes
# T5 sequence (P11712 whole entry): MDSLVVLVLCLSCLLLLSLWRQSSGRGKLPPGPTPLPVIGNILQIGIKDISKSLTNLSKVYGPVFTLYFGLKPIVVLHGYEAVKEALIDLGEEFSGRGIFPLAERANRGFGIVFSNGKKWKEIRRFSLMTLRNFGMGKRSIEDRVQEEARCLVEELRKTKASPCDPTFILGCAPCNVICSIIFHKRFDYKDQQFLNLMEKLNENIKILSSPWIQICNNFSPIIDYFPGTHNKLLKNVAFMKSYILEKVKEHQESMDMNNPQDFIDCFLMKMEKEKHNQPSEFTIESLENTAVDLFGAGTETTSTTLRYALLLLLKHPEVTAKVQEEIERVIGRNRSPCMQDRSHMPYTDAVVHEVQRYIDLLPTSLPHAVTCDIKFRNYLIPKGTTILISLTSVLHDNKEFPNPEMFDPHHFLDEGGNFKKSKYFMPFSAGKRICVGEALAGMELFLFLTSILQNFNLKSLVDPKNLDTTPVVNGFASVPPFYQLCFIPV
# Procedure: as §1
# [7] = target: T6, CYP2C19 (Homo sapiens, UniProt P33261); assay: biochemical; type: in vitro ADME; settings: Substrate = Mephenytoin, human liver microsomes
# T6 construct: from tissue; host or cells: human liver microsomes
# T6 sequence (P33261 whole entry): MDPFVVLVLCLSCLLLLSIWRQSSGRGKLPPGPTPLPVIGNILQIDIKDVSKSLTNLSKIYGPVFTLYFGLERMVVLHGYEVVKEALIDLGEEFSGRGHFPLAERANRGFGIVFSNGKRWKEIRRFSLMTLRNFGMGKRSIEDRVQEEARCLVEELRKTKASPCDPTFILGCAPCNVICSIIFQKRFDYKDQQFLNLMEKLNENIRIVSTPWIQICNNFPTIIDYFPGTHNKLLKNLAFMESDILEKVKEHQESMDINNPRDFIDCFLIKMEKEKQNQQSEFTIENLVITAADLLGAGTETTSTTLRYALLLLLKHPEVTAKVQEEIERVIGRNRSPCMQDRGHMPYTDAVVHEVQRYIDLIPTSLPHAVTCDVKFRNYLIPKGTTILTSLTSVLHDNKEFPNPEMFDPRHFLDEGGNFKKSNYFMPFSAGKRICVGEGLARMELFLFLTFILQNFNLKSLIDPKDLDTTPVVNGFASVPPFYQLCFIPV
# Procedure: as §1
# T1 sequence (P10635 whole entry): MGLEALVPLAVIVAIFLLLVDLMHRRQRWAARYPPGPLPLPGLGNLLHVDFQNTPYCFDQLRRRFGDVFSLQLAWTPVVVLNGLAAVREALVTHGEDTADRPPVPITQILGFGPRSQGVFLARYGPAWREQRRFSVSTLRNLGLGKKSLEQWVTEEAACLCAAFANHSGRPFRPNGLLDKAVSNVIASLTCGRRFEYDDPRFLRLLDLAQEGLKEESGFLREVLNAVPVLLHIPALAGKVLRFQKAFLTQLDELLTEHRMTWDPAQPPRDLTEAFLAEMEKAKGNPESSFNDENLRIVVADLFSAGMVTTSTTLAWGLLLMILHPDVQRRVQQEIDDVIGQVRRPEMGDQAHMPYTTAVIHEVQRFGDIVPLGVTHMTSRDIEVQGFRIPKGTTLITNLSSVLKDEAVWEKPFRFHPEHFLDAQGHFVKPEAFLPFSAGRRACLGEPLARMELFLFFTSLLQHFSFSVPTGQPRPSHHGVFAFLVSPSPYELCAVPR
smiles,measurement,setting,value
"CCCCCC1=C(NCC)C(=O)C(CC=C(C)CCC=C(C)C)=C(O)C1=O [VCE-003.2, 2-(3,7-dimethyl-octa-2,6-dienyl)-6-ethylamino-3-hydroxy-5-pentyl-(1,4) benzoquinone]",neuroprotection in quinolinic acid model of HD,[1],neuroprotective
same,IC50,[2],> 25 µM
same,IC50,[3]; Substrate = Midazolam,> 25 µM
same,IC50,[3]; Substrate = Testosterone,> 25 µM
same,IC50,[4],> 25 µM
same,IC50,[5],13 ± 2.4 µM
same,IC50,[6],15.7 ± 1.96 µM
same,IC50,[7],> 25 µM
